Source: US20240067702A1, “LACTAM-MODIFIED P[…]” (DONGBAO PURPLE STAR (HANGZHOU) BIOPHARMACEUTICAL CO., LTD., priority 2020, published 2024)
pEC50: −log10 of the molar value. Like-named read-outs stand apart in the source and are kept apart here. *1 amine or outer side, *2 acyl side, *3 side chain or, on linkers, in order; H or OH if unused. Where a SMILES comes first, the peptide text is derived from it. Bridges are numbered along the chain shown (N, C = ends). Side-chain parts run from the residue outwards. [ ]: non-standard residue; d: D form. The star is where a group is joined. C20 diacid = O=C(O)CCCCCCCCCCCCCCCCCCC(=O)*; γGlu = O=C(O)[C@H](CCC(=O)[*:2])N[*:1]; AEEA = NCCOCCOCC(=O)O; Aib = CC(C)(N)C(=O)O

What was measured:
[1] = Plasma stability (PLS) test, mouse plasma; format: in vitro ADME; conditions: up to 120 min, read-out: PLS (H/M) T1/2; for half-life at 2 μM: pH 7.4, 37° C.
Procedure: To study the stability of test compounds in the plasma of normal mice.
1. Before the experiment, the coagulated frozen plasma was thawed in a water bath at 37° C. Plasma was centrifuged at 4000 rpm for 5 min. If there was blood clot, the blood clot was removed and the pH value was adjusted to 7.4±0.1.
2. Preparation of the test compound solution: 100 μM of the solution was prepared by dilution with DMSO.
3. 98 μL of blank control plasma was added to 2 μL of the test compound solution (100 μM), so that the final concentration of the mixed solution of the two reached 2 μM, and the mixed solution was placed in a 37° C. water bath for incubation.
4. At each time point (0, 10, 30, 60, and 120 min), 1(X) μL of H3PO4 solution and 800 μL of stop solution (200 ng/mL of tolbutamide and 200 ng/mL of labetalol in 100% methanol solution) were added to precipitate protein, and mixed thoroughly.
5. The samples were centrifuged at 4000 rpm for 20 min, and 1(X) μL of supernatant was taken from each well for LC-MS/MS analysis.

[2] = Kidney homogenate stability (BHS) test; format: in vitro ADME; conditions: normal mouse kidney homogenate, 37° C., read-out: BHS (T1/2 (min))
Procedure: To study the stability of the test compounds in normal mouse kidney homogenate.
1. Before the experiment, the frozen kidney homogenate was thawed in a 37° C. water bath.
2. Test compounds: 10 mM stock solution was diluted with DMSO to prepare 1 mM intermediate solution;
3. test compounds: 1 mM intermediate solution was diluted with DMSO to prepare 50 μM dosing solution;
4. at each time point (0, 10, 30, 60, 120, 180, 240 min), 100 μL of 4% H3PO4 and 800 μL of stop solution were added to precipitate the protein, and mixed thoroughly.
5. The samples were centrifuged at 4000 rpm for 10 min, and 100 μL of supernatant was taken from each well to the plate. The samples were shaken at 800 rpm for approximately 10 min before submitting for LC-MS/MS test.

GLP-1R = molecular target: T1, GLP-1R (Homo sapiens, UniProt P43220); assay: GLP-1R agonist activity test in vitro (cAMP assay); format: cell-based; conditions: HEK293 host cell
T1 construct: host or cells: HEK293
T1 sequence (P43220 24-463): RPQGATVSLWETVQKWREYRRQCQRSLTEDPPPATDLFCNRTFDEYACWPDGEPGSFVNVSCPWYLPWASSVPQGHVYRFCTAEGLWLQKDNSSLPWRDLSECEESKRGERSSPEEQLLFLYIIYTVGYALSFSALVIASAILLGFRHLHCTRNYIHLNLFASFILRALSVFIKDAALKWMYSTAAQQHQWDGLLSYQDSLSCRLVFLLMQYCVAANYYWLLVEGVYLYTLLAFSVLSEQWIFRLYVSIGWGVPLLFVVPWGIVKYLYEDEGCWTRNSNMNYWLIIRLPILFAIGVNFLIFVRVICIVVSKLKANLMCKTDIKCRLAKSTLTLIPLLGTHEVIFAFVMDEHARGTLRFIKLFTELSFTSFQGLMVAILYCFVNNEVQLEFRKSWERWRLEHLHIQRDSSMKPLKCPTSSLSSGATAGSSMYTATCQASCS
Procedure: The cell strains were constructed by Shanghai WuXi AppTec.
The test compound was serially diluted 4-fold with 10 points. The initial concentration was 30 μM, and the dilution was completed with Bravo.
1) 100 nL of the compound was transferred to OptiPlate-384 plate using Echo.
7) The GLP-1R/GIPR cell concentration was diluted to 2.0*10^5/mL with the experimental buffer.
8) […] of the diluted cell suspension was transferred into the OptiPlate-384 plate.
9) The diluted cell suspension was incubated at room temperature for 30 minutes.
2) 10 μL of cAMP detection reagent was added.
3) The OptiPlate-384 plate was covered with TopSeal-A film and incubated at room temperature for 60 minutes.
TopSeal-A was removed and read in EnVision.

[3] = Pharmacokinetic evaluation in SD rats; format: in vivo; conditions: rat, 0.048 mg/kg, single SC 0.048 mpk; for half-life: read-out: Half-life T1/2 (converted); for AUC(0-t): read-out: SC Concentration Integral AUC0-72 h; for Cmax: read-out: Maximum Plasma Concentration
Procedure: To test the pharmacokinetics of compounds in SD rats in vivo
The pharmacokinetic characteristics of the compounds in rodents after subcutaneous injection were tested according to the standard protocol. In the experiment, the candidate compounds were formulated into clear solutions, and a single subcutaneous injection (SC, 0.048 mpk) was given to the rats. The injection vehicle was citrate buffer (20 mM, pH=7). Whole blood was collected and prepared to obtain plasma. Drug concentration was analyzed by LC-MS/MS method, and pharmacokinetic parameters were calculated by Phoenix WinNonlin software.

[4] = Plasma protein binding (PPB) test, mouse; format: in vitro ADME
Procedure: To study the binding of the test compounds to human/mouse plasma albumin.
1. Matrix preparation: On the day of the experiment, the plasma was thawed in cold water and centrifuged at 3220 rpm for 5 min to remove all blood clots. The pH of the obtained plasma was measured and adjusted to 7.4±0.1 using 1% phosphoric acid or 1N sodium hydroxide as needed.
2. Dilution steps of the test compounds: The test compounds were dissolved in dimethyl sulfoxide (DMSO) to prepare stock solutions at concentrations of 10 mM and 2 mM, respectively. A 40 μM working solution was prepared by diluting 2 μL of the stock solution (2 mM) with 98 μL of DMSO. A 400 μM working solution of the control compound was prepared by diluting 10 μL of the stock solution with 240 μL of DMSO. The working solution of the compound (5 μL) was mixed with the blank matrix (995 μL) at a ratio of 1:200 to prepare the loading matrix.
3.1 An equal amount of 30 μL of the loading matrix (n=2) was transferred to the sample collection plate to prepare samples of time 0 (TO) for residue determination. The samples were immediately matched to the corresponding blank buffer in a final volume of 60 μL with a 1:1 volume ratio of plasma to buffer in each well. Then, 60 μL of 4% H3PO4 in H2O and 480 μL of stop solution containing an internal standard were then added to the TO samples of the test compounds. They were then stored at 2-8° C. with other samples pending for further processing.
3.2 The remaining plasma samples were pre-incubated in a carbon dioxide incubator at 37±1° C. for 30 min. The prepared protein-free samples (F samples) and loading matrix samples (230 μL) were transferred to polycarbonate tubes (n=2) and ultracentrifuged at 37° C. and 155000×g (35000 rpm) for 4 hours.
3.3 To prepare T samples (test samples), an additional matrix-containing sample was transferred to a separate 96-well plate (sample incubation plate) and incubated at 37° C. for 4 hours.
3.4 After centrifugation, 30 μL of protein-free sample and 30 μL of T sample were transferred from the second layer of supernatant (below the upper layer) to a new sample collection plate. Each sample was mixed with the corresponding blank buffer or matrix in a final volume of 60 μL with a matrix:buffer volume ratio of 1:1. 60 μL of 4% H3PO4 aqueous solution and 480 μL of stop solution (containing internal standard) were added to all samples. The mixture was centrifuged at 4000 rpm for 20 min, and 100 μL of the supernatant of each sample was taken for LC-MS/MS analysis.

[5] = GLP-IR Agonist Activity EC50 (−) 1% HSA, without 1% HSA

SMILES	half-life ([1]; 2 μM, 37° C.) [h]	half-life ([2]; tissue homogenate) [min]	pEC50 (GLP-1R; [5])	half-life ([3]; in vivo) [h]	AUC(0-t) ([3]; in vivo) [µM·h]	Cmax ([3]; plasma) [nM]	fraction unbound ([4]; ultracentrifugation, read-out: PPB % unbound (H/M))	half-life at 2 μM [1] [h]	half-life [2] [min]	pEC50 (GLP-1R; GLP-IR Agonist Activity EC50 (+) 1% HSA, with 1% HSA)	half-life ([3]; plasma) [h]	AUC(0-t) ([3]; plasma) [µM·h]	fraction unbound at 4 h, 0.2 μM ([4]; pH 7.4, ultracentrifugation)
CC[C@H](C)[C@H](NC(=O)[C@H](CC(C)C)NC(=O)[C@H](Cc1c[nH]c2ccccc12)NC(=O)[C@@H]1CCC(=O)NCCCC[C@H](NC(=O)[C@H](CCC(N)=O)NC(=O)[C@H](C)NC(=O)[C@H](CCCCNC(=O)COCCOCCNC(=O)COCCOCCNC(=O)CC[C@H](NC(=O)CC[C@H](NC(=O)CCCCCCCCCCCCCCCCCCC(=O)O)C(=O)O)C(=O)O)NC(=O)[C@H](CCCCN)NC(=O)[C@H](CC(=O)O)NC(=O)[C@H](CC(C)C)NC(=O)C(C)(C)NC(=O)[C@@H](NC(=O)[C@H](CO)NC(=O)[C@H](Cc2ccc(O)cc2)NC(=O)[C@H](CC(=O)O)NC(=O)[C@H](CO)NC(=O)[C@@H](NC(=O)[C@H](Cc2ccccc2)NC(=O)[C@@H](NC(=O)CNC(=O)[C@H](CCC(=O)O)NC(=O)C(C)(C)NC(=O)[C@@H](N)Cc2ccc(O)cc2)[C@@H](C)O)[C@@H](C)O)[C@@H](C)CC)C(=O)N[C@@H](C)C(=O)N[C@@H](Cc2ccccc2)C(=O)N[C@@H](C(C)C)C(=O)N1)C(=O)N[C@@H](C)C(=O)NCC(=O)NCC(=O)N1CCC[C@H]1C(=O)N[C@@H](CO)C(=O)N[C@@H](CO)C(=O)NCC(=O)N[C@@H](C)C(=O)N1CCC[C@H]1C(=O)N1CCC[C@H]1C(=O)N1CCC[C@H]1C(=O)N[C@@H](CO)C(N)=O [WX-002] (H-Y[Aib]EGTFTSDYSI[Aib]LDKK([AEEA-AEEA-γGlu-γGlu-C20 diacid])AQKAFVEWLIAGGPSSGAPPPS-NH2; lactam 20-24)	> 4.82	20	10.28	17	1.32	14	0.0021	–	–	–	–	–	–
CC[C@H](C)[C@H](NC(=O)[C@H](CC(C)C)NC(=O)[C@H](Cc1c[nH]c2ccccc12)NC(=O)[C@@H]1CCC(=O)NCCCC[C@H](NC(=O)[C@H](CCC(N)=O)NC(=O)[C@H](C)NC(=O)[C@H](CCCCNC(=O)COCCOCCNC(=O)COCCOCCNC(=O)CC[C@H](NC(=O)CCCCCCCCCCCCCCCCCCC(=O)O)C(=O)O)NC(=O)[C@H](CCCCN)NC(=O)[C@H](CC(=O)O)NC(=O)[C@H](CC(C)C)NC(=O)C(C)(C)NC(=O)[C@@H](NC(=O)[C@H](CO)NC(=O)[C@H](Cc2ccc(O)cc2)NC(=O)[C@H](CC(=O)O)NC(=O)[C@H](CO)NC(=O)[C@@H](NC(=O)[C@H](Cc2ccccc2)NC(=O)[C@@H](NC(=O)CNC(=O)[C@H](CCC(=O)O)NC(=O)C(C)(C)NC(=O)[C@@H](N)Cc2ccc(O)cc2)[C@@H](C)O)[C@@H](C)O)[C@@H](C)CC)C(=O)N[C@@H](C)C(=O)N[C@@H](Cc2ccccc2)C(=O)N[C@@H](C(C)C)C(=O)N1)C(=O)N[C@@H](C)C(=O)NCC(=O)NCC(=O)N1CCC[C@H]1C(=O)N[C@@H](CO)C(=O)N[C@@H](CO)C(=O)NCC(=O)N[C@@H](C)C(=O)N1CCC[C@H]1C(=O)N1CCC[C@H]1C(=O)N1CCC[C@H]1C(=O)N[C@@H](CO)C(N)=O [WX-001] (H-Y[Aib]EGTFTSDYSI[Aib]LDKK([AEEA-AEEA-γGlu-C20 diacid])AQKAFVEWLIAGGPSSGAPPPS-NH2; lactam 20-24)	–	–	10.85	–	–	22	–	> 4.82	14	8.44	12	0.728	–
CC[C@H](C)[C@H](NC(=O)[C@H](CC(C)C)NC(=O)[C@H](Cc1c[nH]c2ccccc12)NC(=O)[C@@H]1CCC(=O)NCCCC[C@H](NC(=O)[C@H](CCC(N)=O)NC(=O)[C@H](C)NC(=O)[C@H](CCCCNC(=O)COCCOCCNC(=O)COCCOCCNC(=O)CC[C@H](NC(=O)CCCCCCCCCCCCCCCCCCC(=O)O)C(=O)O)NC(=O)[C@H](CCCCN)NC(=O)[C@H](CC(=O)O)NC(=O)[C@H](CC(C)C)NC(=O)C(C)(C)NC(=O)[C@@H](NC(=O)[C@H](CO)NC(=O)[C@H](Cc2ccc(O)cc2)NC(=O)[C@H](CC(=O)O)NC(=O)[C@H](CO)NC(=O)[C@@H](NC(=O)[C@H](Cc2ccccc2)NC(=O)[C@@H](NC(=O)CNC(=O)[C@H](CCC(=O)O)NC(=O)C(C)(C)NC(=O)[C@@H](N)Cc2ccc(O)cc2)[C@@H](C)O)[C@@H](C)O)[C@@H](C)CC)C(=O)N[C@@H](C)C(=O)N[C@@H](Cc2ccccc2)C(=O)N[C@@H]([C@@H](C)CC)C(=O)N1)C(=O)N[C@@H](C)C(=O)NCC(=O)NCC(=O)N1CCC[C@H]1C(=O)N[C@@H](CO)C(=O)N[C@@H](CO)C(=O)NCC(=O)N[C@@H](C)C(=O)N1CCC[C@H]1C(=O)N1CCC[C@H]1C(=O)N1CCC[C@H]1C(=O)N[C@@H](CO)C(N)=O [WX-006] (H-Y[Aib]EGTFTSDYSI[Aib]LDKK([AEEA-AEEA-γGlu-C20 diacid])AQKAFIEWLIAGGPSSGAPPPS-NH2; lactam 20-24)	–	–	10.29	–	–	16	–	> 4.82	234	–	10	0.846	0.0035
